US20260098072A1, “METHODS OF STIMULATING APPETITE AND/OR INCREASING BODY WEIGHT USING NON-NATURALLY OCCURRING MELANOCORTIN RECEPTOR ANTAGONIST ANALOGS” (Endevica Bio, Inc., priority 2022, published 2026)
Where “and” joins values, the source holds several entries; their conditions need not be identical. Equal values may be shown once. Entries after “also recorded” stand apart in the source; their conditions may differ. Read-outs that look alike come from different tables or passages of the source. Values belong to the compound of their own block, whether it stands above or below them. Positions of bridges follow the written chain, without caps; N, C: chain ends. Non-standard residues stand in square brackets, D forms with d. Residues, ends and D or L forms follow the SMILES beside them. No end group written: not given here. d2Nal = N[C@H](Cc1ccc2ccccc2c1)C(=O)O; Nle = CCCC[C@H](N)C(=O)O

Legend:
human MC3R = target: T1, human MC3R (Homo sapiens, UniProt P41968); test: cAMP accumulation assay (HTRF), antagonist activity at MC3R; type: cell-based; settings: for Emax / IC50: HEK293/CRE-luc/MC3R; for Emax: 0.1 nM to 1,000 nM, read-out: Max Activation %; for IC50: estimated from dose-response curve
T1 construct: expressed in transfected cells; host or cells: HEK293/CRE-luc/MC3R
Description: (§1) The antagonist activity of exemplary non-naturally occurring melanocortin analogs (SEQ ID NOs: 3, 4, 6, 9-11, 14, 15, and 291-309) at the melanocortin 3 receptor (MC3R) and melanocortin 4 (MC4R) receptor was measured via cAMP accumulation assay, according to the following procedure.
(§2) Recombinant cell lines shown in Table 1 were stimulated with melanocortin receptor antagonists and evaluated for cyclic adenosine monophosphate (cAMP) levels as a measurement of receptor activation. cAMP levels were quantified using Homogeneous Time-Resolved Fluorescence (HTRF). The stimulation and CAMP measurement were performed sequentially. First, the compound stimulated the G-protein coupled receptor (GPCR) which then induced downstream signaling, which was measured soon after. Cell lines and stimulated receptors used are detailed in Table 1.
(§3) Twenty-seven exemplary synthetic peptides were tested for antagonist activity at the human MC3R and MC4R at concentrations ranging from 0.1 nM to 1,000 nM. After stimulation, the level of cyclic adenosine monophosphate (CAMP) in each well was quantified via Homogenous Time-Resolved Fluorescence (HTRF) as a measurement of receptor activity. Dose-response curves and estimated IC50 values were then obtained for each antagonist peptide against the MC3R and MC4R. HS024 (TFA) and was used as a positive control for the antagonist activity of MC3R (FIG. 1A) and MC4R (FIG. 1B).

human MC4R = target: T2, human MC4R (Homo sapiens, UniProt P32245); test: cAMP accumulation assay (HTRF), antagonist activity at MC4R; type: cell-based; settings: for Emax: HEK293, HEK293/MC4R/CRE-GFP, 0.1 nM to 1,000 nM, read-out: Max Activation %; for IC50: HEK293/MC4R/CRE-GFP, estimated from dose-response curve
T2 construct: expressed in transfected cells; host or cells: HEK293/MC4R/CRE-GFP
Description: as §1, §2, §3

LPS model of cachexia [1] = test: LPS-induced cachexia assay in rats; type: in vivo, rat; settings: for peripheral (IP) anti-cachexia activity / blood-brain barrier transport: peripheral administration
Description: The LPS model uses rats were maintained on a 12 h light/dark schedule with ad libitum access to food and water. Animals were handled daily for a minimum of three consecutive days to decrease non-specific handling stress. On the day of the experiment, individually housed animals received intraperitoneal injections of LPS dissolved in 0.5% low-endotoxin BSA, 0.9% saline or 0.5% BSA in 0.9% saline alone, and were returned to their home cage. The drug or control was administered (ICV, IP, or PO, depending on the type of study) 1-hour after LPS injection.
In the experiments performed in accordance with the present technology, a series of melanocortin receptor antagonist peptides were examined in a bacterial endotoxin inducing cachexia assay. For this assay, a rat is challenged with a single peripheral injection of lipopolysaccharide (LPS). LPS is a heat-stable lipo-polysaccharide, the major component of the outer membrane (capsule) of gram negative bacteria. In non-capsulated strains, it appears as a cell surface protein. LPS produces a strong immune response, including secretion of the proinflammatory cytokines Tumor Necrosis Factor α (TNFα) and interleukin-1 (IL-1). Proinflammatory cytokines are known factors that induce cachexia.
Rats are maintained on a 12-hour light/dark cycle. Animals are handled daily for a minimum of 5 consecutive days to acclimate them to the handling required for the experiment. […] On the day of the experiment, individually housed animals receive intraperitoneal (IP) injections of LPS dissolved in 0.5% low-endotoxin BSA, 0.9% saline or 0.5% BSA in 0.9% saline alone, and returned in their home cage. Melanocortin receptor antagonist peptides were administered (IP or by gavage, depending on the type of study) one hour after the LPS injection. The extent of cachexia is measured by the reduction in food intake, measured every two hours. The cachexia typically lasts only a single day. However, rats lose up to 5% of their body weight during a 12-hour light cycle, making up this loss plus food needed for normal growth during the 12-hour dark cycle. Thus, failure to eat appropriately during a single dark cycle is determinable from the animal's weight and any changes thereof.
A series of melanocortin receptor antagonist peptides were examined in a bacterial toxin inducing cachexia assay. In this assay, a rat was challenged with a single peripheral injection of lipopolysaccharide (LPS), a bacterial toxin that rapidly induces acute cachexia. The extent of cachexia was measured as a reduction in food intake, measured every two hours. The cachexia typically lasts only a single day.

Lewis sarcoma rat = test: Reversal of cachexia-induced lethargy; type: in vivo; settings: once-daily peripheral dosing for 48 hours (2 IP doses)
Text: In animals and humans, cachexia produces “lethargy,” i.e., the aversion to activity. Grossberg et al., J. Neurosci. 31 (31): 11376-11386. […] This therapeutic effect is dependent on a stabilized non-naturally occurring melanocortin analog C-terminal extension. Video recordings characterized control animal behavior as neo-exploratory movement about the cage, i.e., repeated “sniffing” the air to presumably sample odors (e.g., neighboring animals), grooming, and intermittent bouts of eating and drinking. Caldecott-Hazard et al., J. Neurosci. 8 (6): 1951-1961 (1988).
The animal typically remains in one position for an extended period of time (>1 minute). Occasionally it will change position, assuming the new position for an extended period. The rats show no grooming behavior, evident in the appearance of their coat and eyes.

[2] = TCMCB07 in plasma and cerebrospinal fluid after IV administration (blood-brain barrier transport); type: in vivo, rat
Description: Urethane-anesthetized rats had polyethylene (PE)-tubing cannulas placed in their femoral artery and vein. Each rat was then placed in a small animal stereotaxic apparatus, their head fixed in the lateral plane with ear bars, and their head placed in a 45-50° downward angle by placing their nose below an adjustable tooth bar. This position placed the animal's cistern magna at the highest vertical position of its body. The dural covering of the dorsal cistern magna was exposed.
A stainless steel cannula, with one end attached to PE-tubing, was placed in a stereotaxic tower cannula holder (open end down). The free end of the PE-tubing was attached to a 100 µL gas-tight Hamilton syringe with a 28-gauge needle. The cannula was adjusted to a position that approximated the middle of the exposed cistern magna, and the cannula lowered until it touched the dura mater. […] The dura has a degree of flexibility such that the cannula can depress it before it pierces it. […]
For the experimental procedure, baseline samples of blood and CSF were taken (“O” time points), followed by the IV administration of 750 nmol/kg TCMCB07. […] Both CSF and plasma were stored at −80° C. until analyzed by (HPLC) with spectrofluoremetric monitoring at 230 nm excitation and […] (the fluorescence maximum for the Nal residue). […]

[3] = Phase 1 clinical trial (NCT05529849), safety; type: in vivo, human; settings: 5 SAD and 3 MAD cohorts
Text: Safety results of the single center, inpatient, double-blind, randomized, sequential assessment of 5 SAD (1a-5a) and 3 MAD (1b-3) cohorts dosed over 5 days TCMCB07 Phase 1 Clinical Trial (NCT05529849) have been summarized in FIG. 25. The entirety of the TCMCB07 Phase 1 Clinical Trial (NCT05529849) is incorporated herein by reference.

Lewis sarcoma rat model [4] = settings: previously published results; cited from earlier work
[5] = test system: urethane-anesthetized rats; test: Cardiovascular effects (MAP, heart rate, ECG) in urethane-anesthetized rats; settings: 200 nmol
Description: (§4) These studies were performed in urethane-anesthetized rats, since anesthesia is required for six-lead ECG monitoring. […] Initial selection of doses was guided by FDA exploratory IND studies with a recommendation for at least a 100-fold excess of the human dose.

LPS model of cachexia [6] = settings: Sutton et al., Peptides 29 (1): 104-111 (2008); cited from earlier work
Lewis sarcoma rat model [7] = test: Lewis sarcoma rat model of cancer cachexia; type: in vivo; settings: 2 nmol once per day
Description: This sarcoma is an aggressive form of cancer that produces significant cachexia. Popp et al., Cancer 49 (6): 1212-1220 (1982). In the protocol, “treatment” began 8-days after tumor implantation, with a significant decrease in food intake from baseline. Body composition was determined by NMR prior to tumor implantation, and on the final day of the experiment after tumor resection, by ECHO MRI (NMR). Tumor implantation produces cachexia on or about the sixth day. The non-naturally occurring melanocortin analog or saline was administered after day 8 and continued through day 12.

[8] = test system: urethane-anesthetized rats; settings: rat, in vivo
Description: as §4

T1 sequence (P41968 whole entry): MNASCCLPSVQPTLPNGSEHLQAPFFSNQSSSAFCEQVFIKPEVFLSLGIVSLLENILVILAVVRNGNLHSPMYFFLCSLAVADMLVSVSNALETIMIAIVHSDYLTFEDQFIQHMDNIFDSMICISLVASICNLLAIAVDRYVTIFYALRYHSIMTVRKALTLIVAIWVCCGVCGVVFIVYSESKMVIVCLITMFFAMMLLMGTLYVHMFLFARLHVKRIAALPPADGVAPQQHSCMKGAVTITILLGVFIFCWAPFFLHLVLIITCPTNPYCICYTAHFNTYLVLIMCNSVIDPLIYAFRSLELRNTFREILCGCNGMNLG
T2 sequence (P32245 whole entry): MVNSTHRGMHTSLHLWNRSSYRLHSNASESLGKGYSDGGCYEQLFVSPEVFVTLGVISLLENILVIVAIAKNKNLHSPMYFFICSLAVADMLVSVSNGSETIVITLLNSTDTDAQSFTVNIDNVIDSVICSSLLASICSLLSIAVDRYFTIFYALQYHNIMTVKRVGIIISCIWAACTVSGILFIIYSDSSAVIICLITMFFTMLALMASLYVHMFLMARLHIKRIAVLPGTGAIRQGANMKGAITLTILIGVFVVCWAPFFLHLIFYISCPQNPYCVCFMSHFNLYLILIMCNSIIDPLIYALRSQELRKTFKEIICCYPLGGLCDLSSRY

Emax (human MC3R): 101% | IC50 (human MC3R): < 10 µM | Hill Coefficient (human MC3R; dose-response fit, MC3R): 1.03 | Top (%) (human MC3R; dose-response fit, MC3R): 120.45% | Emax (human MC4R): 120% | IC50 (human MC4R): < 10 µM | Hill Coefficient (human MC4R; dose-response fit, MC4R): 0.69 | Top (%) (human MC4R; dose-response fit, MC4R): 127.47%
Compound: CCCC[C@H](NC(C)=O)C(=O)N[C@H]1CC(=O)NCCCC[C@@H](C(=O)N2CCC[C@@H]2C(=O)N[C@@H](C(N)=O)C(C)C)NC(=O)[C@H](Cc2c[nH]c3ccccc23)NC(=O)[C@H](CCCNC(=N)N)NC(=O)[C@@H](Cc2ccc3ccccc3c2)NC(=O)[C@@H]2CCCN2C1=O [TCMCB02, Ac-Nle-c[Asp-Pro-dNal(2′)-Arg-Trp-Lys]-dPro-dVal-NH2] (Ac-[Nle]DP[d2Nal]RWK[dP][dV]-NH2; lactam 2-7)
body weight gain overnight (LPS model of cachexia [1]; 2 mg/kg, IP): ~5% | food intake, 12-hours overnight (LPS model of cachexia [1]; 2 mg/kg, IP, baseline = previous 4-day average): 65 % of baseline | anti-cachectic activity after ICV administration (LPS model of cachexia [1]): equivalent to TCMCB01 | oral activity / gastrointestinal transport (LPS model of cachexia [1]; gavage (intra-gastric)): did not have oral activity; also recorded: had no oral activity | peripheral (IP) anti-cachexia activity / blood-brain barrier transport (LPS model of cachexia [1]): has peripheral activity, significantly reversing LPS-induced cachexia; also recorded: produced anti-cachexia following peripheral administration | anti-cachectic activity relative to the parent compound (LPS model of cachexia [1]; rat, in vivo): 10 fold | behavior (lethargy) (Lewis sarcoma rat): restored “normal” behavior to rats

Emax (human MC3R): 112% | IC50 (human MC3R): < 10 µM and 0.0434 µM | level at time molar at 2 min ([2]; rat, plasma, 2 minutes post-intravenous administration, 750 nmol/kg, read-out: Concentration in plasma): 7 µM | Emax (human MC4R): 118% | IC50 (human MC4R): < 10 µM and 0.0269 µM
Compound: CCCC[C@H](NC(C)=O)C(=O)N[C@H]1CC(=O)NCCCC[C@@H](C(=O)N[C@@H](C(=O)N2CCC[C@@H]2C(N)=O)C(C)C)NC(=O)[C@H](Cc2c[nH]c3ccccc23)NC(=O)[C@H](CCCN=C(N)N)NC(=O)[C@@H](Cc2ccc3ccccc3c2)NC(=O)[C@@H]2CCCN2C1=O [TCMCB07, Ac-Nle-c[Asp-Pro-dNal(2′)-Arg-Trp-Lys]-dVal-dPro-NH2] (Ac-[Nle]DP[d2Nal]RWK[dV][dP]-NH2; lactam 2-7)
presence in CSF / transport through the blood-brain-barrier ([2]; IV 750 nmol/kg, HPLC effluent by mass spectrometry): confirmed the presence of TCMCB07 in CSF; also recorded: direct physical evidence of TCMCB07 transport through the blood-brain-barrier | CAEs [3]: zero | clinically relevant abnormal laboratory test results [3]: zero | clinically relevant abnormal physical exams [3]: zero | drug-related SAEs [3]: zero | patients having abnormal ECGs [3]: zero

Compound: AGRP: natural melanocortin system inhibitor; naturally occurring melanocortin antagonist protein (SSRRCVRLHESCLGQQVPCCDPCATCYCRFFNAFCYCRKLGTAMNPCSRT; ends and bridges not checked; cysteine pairing not given here; UniProt O00253 83-132, looked up)
reversal of feeding / cachexia-anorexia syndrome in cachexia models (Lewis sarcoma rat model [4]): 100%

Compound: Ac-NLe-c[Asp-Pro-DNal(2′)-Arg-Trp-Lys]-Pro-Val-NH2 (Ac-[Nle]DP[d2Nal]RWKPV-NH2; lactam 2-7) [PG-932]
Duration [5]: 4 ± 3 min | Peak Heart Rate Response (BPM) [5]: 13 ± 09 BPM | Peak MAP Response (Δ mm Hg) [5]: 5 ± 3 mm Hg | peripheral activity (LPS model of cachexia [6]): active peripherally

Compound: Ac-Nle-c[Asp-His-DNal(2′)-Arg-Trp-Lys]-NH2 [SHU9119]
reversal of anorexia (Lewis sarcoma rat model [7]): about 70 % of that observed with AGRP | Peak Heart Rate Response (BPM) [8]: 16 ± 5/3 ± 14 BPM | Peak MAP Response (Δ mm Hg) [8]: 16 ± 5/3 ± 14 mm Hg

Compound: Ac-Nle-c[Asp-Pro-DNal(2′)-Arg-Trp-Lys]-β^3Pro-β^2Val-NH2 [TCMCB05]
food intake and body weight, 24-hours (LPS model of cachexia [1]; 0.2 mg/kg intraperitoneally): had stimulated appetites and gained weight | anti-cachectic activity after ICV administration (LPS model of cachexia [1]): molar activity equivalent to TCMCB02 | molar activity relative to TCMCB02 (LPS model of cachexia [1]; ICV-administration): 10 fold | peripheral (IP) anti-cachexia activity / blood-brain barrier transport (LPS model of cachexia [1]): had IP anti-cachexia activity; also recorded: had peripheral anti-cachexia activity | behavior (lethargy) (Lewis sarcoma rat): restored “normal” behavior to rats
